Converted amounts (≈) assume the structure as drawn.
Experiments:
[1] = test system: Pseudomonas; conditions: in words; cited from earlier work
[2] = test system: various gram-positive and gram-negative bacteria; conditions: in words; cited from earlier work
[3] = test system: Staphylococcus aureus 209P; assay: Minimal inhibitory concentration by agar dilution method; format: cell-based
[4] = test system: Escherichia coli NIHJ; assay: as above; format: cell-based
[5] = test system: Proteus mirabilis GN2425; assay: as above; format: cell-based
[6] = test system: Proteus vulgaris HX19; assay: as above; format: cell-based
[7] = test system: Klebsiella pneumoniae 602; assay: as above; format: cell-based
[8] = test system: Pseudomonas aeruginosa 104; assay: as above; format: cell-based

MIC [5] [µg/mL]	SMILES	antimicrobial activity against Pseudomonas [1]	growth inhibition / antimicrobial activity against gram-positive and gram-negative bacteria [2]	MIC [3] [µg/mL]	MIC [4] [µg/mL]	MIC [6] [µg/mL]	MIC [7] [µg/mL]	MIC [8] [µg/mL]
12.5 (≈ 24.5 µM)	CC1(C)S[C@@H]2[C@H](NC(=O)[C@H](NC(=O)c3cnc4c(c3O)CCC4)c3ccccc3)C(=O)N2[C@H]1C(=O)O [Example 2, D-α-(4-hydroxy-2,3-cyclopentenopyridine-5-carboxamido)-benzylpenicillin]	–	–	0.39 (≈ 0.764 µM)	25 (≈ 49 µM)	0.39 (≈ 0.764 µM)	12.5 (≈ 24.5 µM)	12.5 (≈ 24.5 µM)
6.25 (≈ 11.9 µM)	CC1(C)S[C@@H]2[C@H](NC(=O)[C@H](NC(=O)c3cnc4c(c3O)CCCC4)c3ccccc3)C(=O)N2[C@H]1C(=O)O [Example 3, D-α-(4-hydroxy-2,3-cyclohexenopyridine-5-carboxamido)-benzylpenicillin]	–	–	–	–	0.39 (≈ 0.743 µM)	–	12.5 (≈ 23.8 µM)
6.25 (≈ 11.9 µM)	CC(=O)c1c(C)ncc(C(=O)N[C@@H](C(=O)N[C@@H]2C(=O)N3[C@@H]2SC(C)(C)[C@@H]3C(=O)O)c2ccccc2)c1O [Example 4, D-α-(3-acetyl-4-hydroxy-2-methyl-pyridine-5-carboxamido)-benzylpenicillin]	–	–	0.78 (≈ 1.48 µM)	12.5 (≈ 23.7 µM)	0.39 (≈ 0.741 µM)	12.5 (≈ 23.7 µM)	12.5 (≈ 23.7 µM)
6.25 (≈ 10.3 µM)	CC(C)(C)C(=O)Oc1c(C(=O)N[C@@H](C(=O)N[C@@H]2C(=O)N3[C@@H]2SC(C)(C)[C@@H]3C(=O)O)c2ccccc2)cnc2c1CCCC2 [Example 5, D-α-(2,3-cyclohexeno-4-pivaloyloxypyridine-5-carboxamido)-benzylpenicillin]	–	–	0.78 (≈ 1.28 µM)	12.5 (≈ 20.5 µM)	0.39 (≈ 0.641 µM)	6.25 (≈ 10.3 µM)	12.5 (≈ 20.5 µM)
6.25 (≈ 10.5 µM)	CCOC(=O)Oc1c(C(=O)N[C@@H](C(=O)N[C@@H]2C(=O)N3[C@@H]2SC(C)(C)[C@@H]3C(=O)O)c2ccccc2)cnc2c1CCCC2 [Example 6, D-α -(4-ethoxycarbonyloxy-2,3-cyclohexenopyridine-5-carboxamido)-benzylpenicillin]	–	–	0.78 (≈ 1.31 µM)	12.5 (≈ 20.9 µM)	0.39 (≈ 0.654 µM)	6.25 (≈ 10.5 µM)	12.5 (≈ 20.9 µM)
6.25 (≈ 13.3 µM)	CC1(C)S[C@@H]2[C@H](NC(=O)[C@H](NC(=O)c3ccnnc3O)c3ccccc3)C(=O)N2[C@H]1C(=O)O [Example 8, D-α-(3-hydroxypyridazine-4-carboxamido)-benzylpenicillin]	–	–	–	–	–	–	–
6.25 (≈ 12.8 µM)	CC1(C)S[C@@H]2[C@H](NC(=O)[C@H](NC(=O)c3cnccc3O)c3ccc(O)cc3)C(=O)N2[C@H]1C(=O)O [Example 9, D-α-(4-hydroxypyridine-3-carboxamido)-p-hydroxybenzylpenicillin]	–	–	0.78 (≈ 1.6 µM)	–	–	100 (≈ 206 µM)	–
25 (≈ 55.4 µM)	CC(C)CC(NC(=O)c1ccnnc1O)C(=O)N[C@@H]1C(=O)N2[C@@H]1SC(C)(C)[C@@H]2C(=O)O (stereo partly drawn) [Example 13]	–	–	0.39 (≈ 0.864 µM)	12.5 (≈ 27.7 µM)	0.39 (≈ 0.864 µM)	25 (≈ 55.4 µM)	12.5 (≈ 27.7 µM)
6.25 (≈ 13.1 µM)	CC1(C)S[C@@H]2[C@H](NC(=O)C(NC(=O)c3ccnnc3O)c3cccs3)C(=O)N2[C@H]1C(=O)O (stereo partly drawn) [Example 18]	–	–	0.39 (≈ 0.817 µM)	12.5 (≈ 26.2 µM)	0.05 (≈ 0.105 µM)	12.5 (≈ 26.2 µM)	3.13 (≈ 6.55 µM)
6.25 (≈ 10.2 µM)	CCOC(=O)Oc1c(C(=O)NC(C(=O)N[C@@H]2C(=O)N3[C@@H]2SC(C)(C)[C@@H]3C(=O)O)c2ccccc2)cnc2c1CCCCC2 (stereo partly drawn) [Example 21]	–	–	0.78 (≈ 1.28 µM)	25 (≈ 40.9 µM)	0.78 (≈ 1.28 µM)	3.13 (≈ 5.13 µM)	25 (≈ 40.9 µM)
12.5 (≈ 23.6 µM)	Cc1ncc(C(=O)NC(C(=O)N[C@@H]2C(=O)N3[C@@H]2SC(C)(C)[C@@H]3C(=O)O)c2ccccc2)c(O)c1C(C)O (stereo partly drawn) [Example 22]	–	–	0.78 (≈ 1.48 µM)	25 (≈ 47.3 µM)	0.39 (≈ 0.738 µM)	12.5 (≈ 23.6 µM)	6.25 (≈ 11.8 µM)
12.5 (≈ 26.6 µM)	CC1(C)S[C@@H]2[C@H](NC(=O)C(NC(=O)c3cnccc3O)c3ccccc3)C(=O)N2[C@H]1C(=O)O (stereo partly drawn) [Example 25]	–	–	0.78 (≈ 1.66 µM)	–	0.2 (≈ 0.425 µM)	25 (≈ 53.1 µM)	6.23 (≈ 13.2 µM)
100 (≈ 220 µM)	CC1(C)S[C@@H]2[C@H](NC(=O)C(NC(=O)c3cccnc3)c3ccccc3)C(=O)N2[C@H]1C(=O)O (stereo partly drawn) [II, reference compound]	–	–	0.78 (≈ 1.72 µM)	100 (≈ 220 µM)	0.78 (≈ 1.72 µM)	100 (≈ 220 µM)	50 (≈ 110 µM)

Further lines, the compound ahead of its results:

SMILES	MIC [5] [µg/mL]	antimicrobial activity against Pseudomonas [1]	growth inhibition / antimicrobial activity against gram-positive and gram-negative bacteria [2]	MIC [3] [µg/mL]	MIC [4] [µg/mL]	MIC [6] [µg/mL]	MIC [7] [µg/mL]	MIC [8] [µg/mL]
CC1(C)S[C@@H]2C(NC(=O)C(N)c3ccccc3)C(=O)N2[C@H]1C(=O)O (stereo partly drawn) [Ampicillin, 6-(α-aminophenylacetamido)-penicillanic acid]	–	does not exert any appreciable antimicrobial activity against Pseudomonas	inhibits the growth of various gram-positive and gram-negativebacteria	–	–	–	–	–
CCOC(=O)Oc1c(C(=O)N[C@@H](C(=O)N[C@@H]2C(=O)N3[C@@H]2SC(C)(C)[C@@H]3C(=O)O)c2ccccc2)cnc2c1CCC2 [Example 1, D-α-(4-ethoxycarbonyloxy-2,3-cyclopentenopyridine-5-carboxamido)-benzylpenicillin]	3.13 (≈ 5.37 µM)	–	–	0.39 (≈ 0.669 µM)	12.5 (≈ 21.5 µM)	0.05 (≈ 0.0858 µM)	6.25 (≈ 10.7 µM)	6.25 (≈ 10.7 µM)
CC1(C)S[C@@H]2[C@H](NC(=O)[C@H](NC(=O)c3cccnc3O)c3ccc(O)cc3)C(=O)N2[C@H]1C(=O)O [Example 10, D-α-(2-hydroxypyridine-3-carboxamido)-p-hydroxybenzylpenicillin]	12.5 (≈ 25.7 µM)	–	–	1.56 (≈ 3.21 µM)	12.5 (≈ 25.7 µM)	0.2 (≈ 0.411 µM)	100 (≈ 206 µM)	6.25 (≈ 12.8 µM)
CC1(C)S[C@@H]2[C@H](NC(=O)[C@H](NC(=O)c3cnccc3O)C3=CCC=CC3)C(=O)N2[C@H]1C(=O)O [Example 11, D-α-(4-hydroxypyridine-3-carboxamido)-1,4-cyclohexadienylmethylpenicillin]	12.5 (≈ 26.5 µM)	–	–	0.39 (≈ 0.825 µM)	25 (≈ 52.9 µM)	0.2 (≈ 0.423 µM)	12.5 (≈ 26.5 µM)	6.25 (≈ 13.2 µM)
CC1(C)S[C@@H]2[C@H](NC(=O)C(NC(=O)c3ccnnc3O)C3=CCC=CC3)C(=O)N2[C@H]1C(=O)O (stereo partly drawn) [Example 12]	12.5 (≈ 26.4 µM)	–	–	0.2 (≈ 0.422 µM)	12.5 (≈ 26.4 µM)	0.05 (≈ 0.106 µM)	3.13 (≈ 6.61 µM)	3.13 (≈ 6.61 µM)
CC1(C)S[C@@H]2[C@H](NC(=O)C(NC(=O)c3ccnnc3O)c3ccsc3)C(=O)N2[C@H]1C(=O)O (stereo partly drawn) [Example 15]	6.25 (≈ 13.1 µM)	–	–	0.39 (≈ 0.817 µM)	12.5 (≈ 26.2 µM)	0.05 (≈ 0.105 µM)	12.5 (≈ 26.2 µM)	3.13 (≈ 6.55 µM)
CC1(C)S[C@@H]2[C@H](NC(=O)C(NC(=O)c3cnccc3O)c3cnsc3)C(=O)N2[C@H]1C(=O)O (stereo partly drawn) [Example 16]	12.5 (≈ 26.2 µM)	–	–	0.78 (≈ 1.63 µM)	25 (≈ 52.4 µM)	0.2 (≈ 0.419 µM)	25 (≈ 52.4 µM)	6.25 (≈ 13.1 µM)
CC1(C)S[C@@H]2[C@H](NC(=O)C(NC(=O)c3cncnc3O)c3ccsc3)C(=O)N2[C@H]1C(=O)O (stereo partly drawn) [Example 17]	6.25 (≈ 13.1 µM)	–	–	0.39 (≈ 0.817 µM)	25 (≈ 52.4 µM)	0.05 (≈ 0.105 µM)	50 (≈ 105 µM)	3.13 (≈ 6.55 µM)
CC1(C)S[C@@H]2[C@H](NC(=O)C(NC(=O)c3ccnnc3O)c3cnsc3)C(=O)N2[C@H]1C(=O)O (stereo partly drawn) [Example 19]	6.25 (≈ 13.1 µM)	–	–	0.39 (≈ 0.815 µM)	12.5 (≈ 26.1 µM)	0.05 (≈ 0.104 µM)	25 (≈ 52.2 µM)	6.25 (≈ 13.1 µM)
CC1(C)S[C@@H]2[C@H](NC(=O)C(NC(=O)c3cnc4c(c3O)CCCCC4)c3ccccc3)C(=O)N2[C@H]1C(=O)O (stereo partly drawn) [Example 20]	6.25 (≈ 11.6 µM)	–	–	0.78 (≈ 1.45 µM)	25 (≈ 46.4 µM)	0.78 (≈ 1.45 µM)	3.13 (≈ 5.81 µM)	12.5 (≈ 23.2 µM)
Cc1cc(C(=O)NC(C(=O)N[C@@H]2C(=O)N3[C@@H]2SC(C)(C)[C@@H]3C(=O)O)c2ccccc2)c(O)nn1 (stereo partly drawn) [Example 24]	50 (≈ 103 µM)	–	–	0.39 (≈ 0.803 µM)	12.5 (≈ 25.7 µM)	0.39 (≈ 0.803 µM)	25 (≈ 51.5 µM)	3.13 (≈ 6.45 µM)
CSc1ncc(C(=O)NC(C(=O)N[C@@H]2C(=O)N3[C@@H]2SC(C)(C)[C@@H]3C(=O)O)c2ccccc2)c(O)n1 (stereo partly drawn) [Example 27]	12.5 (≈ 24.2 µM)	–	–	0.78 (≈ 1.51 µM)	50 (≈ 96.6 µM)	0.1 (≈ 0.193 µM)	50 (≈ 96.6 µM)	6.25 (≈ 12.1 µM)
CC1(C)S[C@@H]2[C@H](NC(=O)C(NC(=O)c3ccccn3)c3ccccc3)C(=O)N2[C@H]1C(=O)O (stereo partly drawn) [I, reference compound]	50 (≈ 110 µM)	–	–	–	–	–	–	–

Reference: patent publication US4008220A, “Penicillins” (Sumitomo Chemical Company, Limited, priority 1972, dated 1977)
